# How the values were obtained:
# [1] = Pharmacokinetics of MRS4322 following intraperitoneal administration to mice (plasma and brain concentrations); format: in vivo; details: MRS4322 […] i.p.; for Plasma Concentration Mean / Plasma Concentration by Subject: BLQ = below 2.40 ng/mL; for Brain Concentration Mean / Brain Concentration by Subject: BLQ = below 9.64 ng/g; for Plasma Concentration by Subject / Brain Concentration by Subject: subjects A-C
# Experimental: Animals: Female C576BL/6J mice weighing approximately 0.02 kg were used for this study, supplied by the University of Texas Health Sciences Center (San Antonio, TX). All studies were conducted under approved University of Texas Health Sciences Center IACUC protocols.
# Drug Administration: MRS4322 was solubilized in DMSO and then diluted in saline to prepare dosing solution. Final dosing solution concentration of MRS4322 was 100 μM. A 100 μL volume of dosing solution was administered intraperitoneally to each mouse per 20 gram body weight; MRS4322 was administered intraperitoneally at 0.16 mg/kg or 0.5 μmol/kg. Three mice were administered MRS4322 for each sampling timepoint.
# Tissue Sampling: Blood and brain samples were obtained at 0, 0.083, 0.25, 0.5, 1, 2 and 8 hours post-dose. At each timepoint, mice (3/timepoint) were euthanized in a […] chamber. Whole blood was obtained by cardiac puncture into Microtainer tubes containing heparin and immediately centrifuged for preparation of plasma; plasma was stored at −80° C. At each timepoint, whole brain samples were obtained by decapitation, rinsed in ice-cold phosphate-buffered saline and weighed. Brain samples were then immediately flash-frozen in liquid nitrogen and stored at −80° C.
# The following table outlines the LC and MS/MS conditions employed:
# The calibration range for the MRS4322 plasma concentration standard curve was 2.42-242 ng/mL. The calibration range for MRS4322 brain concentrations was 2.41-233 ng/mL.
# For bioanalysis of brain concentrations of MRS4322, brain samples were homogenized in ice-cold phosphate-buffered saline in a 4× dilution. Aliquots of the resulting diluted brain homogenate were treated with acetonitrile and analyzed by LC-MS/MS. Because of the 4× homogenate dilution, the calibration range of the MRS4322 brain standard curve was translated to 9.64-932 ng/gm. In several samples, MRS4322 was detectable but fell below the brain LLOQ of 9.64 ng/gm but were above background; in these cases the final reported brain concentration was extrapolated based on MS peak heights.
# A3 receptor = molecular target: T1, A3 receptor (Mus musculus, UniProt Q61618); experiment: Affinity at the A3 receptor in the mouse as stated in the discussion; format: binding
# T1 sequence (Q61618 1-319): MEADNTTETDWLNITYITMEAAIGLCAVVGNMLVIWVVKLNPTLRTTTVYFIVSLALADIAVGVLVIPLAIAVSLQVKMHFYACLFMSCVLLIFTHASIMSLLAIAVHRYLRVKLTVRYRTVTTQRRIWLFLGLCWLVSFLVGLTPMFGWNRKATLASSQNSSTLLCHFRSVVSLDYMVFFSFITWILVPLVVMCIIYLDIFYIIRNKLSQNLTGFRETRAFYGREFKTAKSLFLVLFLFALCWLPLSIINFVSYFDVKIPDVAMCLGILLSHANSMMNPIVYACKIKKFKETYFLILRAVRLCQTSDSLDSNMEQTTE
# [2] = In vitro stability of MRS2365 in mouse plasma; format: in vitro ADME; details: heparin-treated mouse plasma, 0-90 seconds, even at 0 and 5 seconds
# Experimental: (§1) Whole blood was obtained from male CD-1 mice and human volunteers at Seventh Wave Laboratories (Maryland Heights, MO). Plasma and blood samples were prepared using either EDTA (1 mM) or lithium heparin as anticoagulants.
# Plasma Stability Determination: MRS2365, enalapril and procaine were solubilized in phosphate-buffered saline, pH 7.4. […] Stability incubations were initiated with the addition of MRS2365 (1 μM final concentration). Initial assessments of stability in EDTA-generated plasma utilized incubation timepoints of 0, 10, 30, 60, 120 and 240 minutes (FIGS. 3 and 4). Subsequent studies comparing EDTA- and heparin-generated plasma utilized incubation timepoints of 0, 1, 2.5, 5, 7.5, 10 and 30 minutes (FIG. 7). Additional plasma stability incubations comparing EDTA- and heparin-generated plasma were performed using timepoints of 0, 5, 10, 20, 30, 45, 60 and 90 seconds (FIG. 8). For metabolite scouting analyses, MRS2365 was incubated in heparinized human plasma at a concentration of 100 μM for 10 or 30 minutes (FIG. 9). In all studies, plasma was immediately placed in microtainer tubes, frozen on dry ice and stored at −80° C. until analysis.
# The following table outlines the LC and MS/MS conditions employed (Table 11).
# The calibration range for MRS2365 plasma and blood concentration standard curves was 5-5000 ng/mL. […]
# [3] = In vitro stability and metabolite scouting of MRS2365 in human plasma; format: in vitro ADME
# Experimental: as §1
# Plasma Stability Determination: MRS2365, enalapril and procaine were solubilized in phosphate-buffered saline, pH 7.4. […] Stability incubations were initiated with the addition of MRS2365 (1 μM final concentration). Initial assessments of stability in EDTA-generated plasma utilized incubation timepoints of 0, 10, 30, 60, 120 and 240 minutes (FIGS. 3 and 4). […]
# Plasma and blood samples were also qualitatively analyzed for MRS2365 metabolites utilizing a LC-MS/MS-based “metabolite scouting” protocol. […] Blood and plasma samples were analyzed by both positive- and negative-ion LC/MS-MS for parent compound and metabolites as it was anticipated that the phosphorylated compounds would preferentially generate negative ions while the riboside MRS4322 would preferentially generate positive ions. In positive-ion mode, extracted ion chromatograms monitored masses in the range of 323.7-324.7 and 403.7-404.7 to scout for MRS4322 and MRS2347, respectively. Any ion peaks in these ranges were further analyzed to generate product ion spectra for these ion chromatogram peaks. […]
compound,measurement,setting,value
CSc1nc(N)c2ncn([C@H]3[C@H](O)[C@H](O)[C@]4(CO)C[C@H]34)c2n1 [MRS4322],Plasma Concentration Mean,[1]; 0 h,BLQ
same,Brain Concentration Mean,[1]; 0 h,BLQ
same,Plasma Concentration by Subject,[1]; 0 h,BLQ
same,Brain Concentration by Subject,[1]; 0 h,BLQ
same,Brain Concentration Mean,[1]; 1 h,BLQ
same,Brain Concentration by Subject,[1]; 1 h,BLQ
same,Brain Concentration Mean,[1]; 2 h,BLQ
same,Brain Concentration by Subject,[1]; 2 h,BLQ
same,Plasma Concentration Mean,[1]; 8 h,BLQ
same,Brain Concentration Mean,[1]; 8 h,BLQ
same,Plasma Concentration by Subject,[1]; 8 h,BLQ
same,Brain Concentration by Subject,[1]; 8 h,BLQ
same,difference in affinity between MRS4322 and Cl-IB-MECA,A3 receptor,"approximately 25,000 fold"
CSc1nc(N)c2ncn([C@H]3[C@H](O)[C@H](O)[C@]4(COP(=O)(O)OP(=O)(O)O)C[C@H]34)c2n1 [MRS2365],MRS2365 concentrations during incubation,[2],extremely low
same,"metabolites observed (M2 = MRS2347, M1 = MRS4322)","[3]; 100 μM in human plasma, lithium heparin as anti-coagulant",Two metabolites
same,MRS2365 concentrations during incubation,"[3]; heparin-treated human plasma, 0-90 seconds, even at 0 and 5 seconds",extremely low

# Reference: patent US12390483B2, “Compounds and methods for treating neurological and cardiovascular conditions” (Astrocyte Pharmaceuticals, Inc., priority 2016, dated 2025)
